Data taken from US10781211B2, “Spirocycle compounds and methods of making and using same” (Lundbeck La Jolla Research Center, Inc., priority 2016, dated 2020).

Legend:
Assay type in all cases: in vivo
Details in all cases: 5 mg/kg oral gavage
FAAH = FAAH (Mus musculus (Mouse), UniProt O08914); experiment: Mouse brain proteomes from inhibitor treated mice (oral gavage, sacrifice 4 h after administration, ABPP analysis), FAAH
Method: (§1) Preparation of Mouse Brain Proteomes from Inhibitor Treated Mice.
(§2) Inhibitors were administered to wild-type C57Bl/6J by oral gavage in a vehicle, e.g. PEG400/Ethanol/PBS (7/2/1). Each animal was sacrificed 4 h following administration and brain proteomes were prepared and analyzed according to previously established methods (See Niphakis, M. J., et al. (2011) ACS Chem. Neurosci. and Long, J. Z., et al. Nat. Chem. Biol. 5:37-44). Data from this assay is shown in Table 2 (% inhibition at 5 mg/kg).

MAGL = MAGL (Mus musculus (Mouse), UniProt O35678); experiment: Mouse brain proteomes from inhibitor treated mice (oral gavage, sacrifice 4 h after administration, ABPP analysis)
Method: as §1, §2

ABHD6 = ABHD6 (Mus musculus (Mouse), UniProt Q8R2Y0); experiment: Mouse brain proteomes from inhibitor treated mice (oral gavage, sacrifice 4 h after administration, ABPP analysis), ABHD6
Method: as §1, §2

Sequence of ABHD6 (Q8R2Y0 whole entry): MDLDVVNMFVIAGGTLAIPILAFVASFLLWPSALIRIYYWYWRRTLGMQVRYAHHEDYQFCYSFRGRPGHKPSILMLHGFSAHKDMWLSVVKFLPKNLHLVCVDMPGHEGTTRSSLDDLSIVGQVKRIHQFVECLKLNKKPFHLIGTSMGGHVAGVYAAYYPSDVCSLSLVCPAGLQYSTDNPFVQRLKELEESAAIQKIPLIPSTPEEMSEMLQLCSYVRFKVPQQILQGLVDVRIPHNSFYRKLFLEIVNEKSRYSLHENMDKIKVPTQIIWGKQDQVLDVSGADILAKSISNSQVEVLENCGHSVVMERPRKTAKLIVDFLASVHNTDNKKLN
Sequence of MAGL (O35678 whole entry): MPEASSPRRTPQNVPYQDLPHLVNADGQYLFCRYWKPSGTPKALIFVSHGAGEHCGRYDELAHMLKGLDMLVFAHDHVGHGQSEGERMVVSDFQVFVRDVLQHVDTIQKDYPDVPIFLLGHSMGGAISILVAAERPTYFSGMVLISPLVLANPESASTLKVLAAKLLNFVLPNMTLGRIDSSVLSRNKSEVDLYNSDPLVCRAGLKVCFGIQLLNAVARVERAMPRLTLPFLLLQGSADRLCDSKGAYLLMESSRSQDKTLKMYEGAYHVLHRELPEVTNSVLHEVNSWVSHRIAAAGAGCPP
Sequence of FAAH (O08914 whole entry): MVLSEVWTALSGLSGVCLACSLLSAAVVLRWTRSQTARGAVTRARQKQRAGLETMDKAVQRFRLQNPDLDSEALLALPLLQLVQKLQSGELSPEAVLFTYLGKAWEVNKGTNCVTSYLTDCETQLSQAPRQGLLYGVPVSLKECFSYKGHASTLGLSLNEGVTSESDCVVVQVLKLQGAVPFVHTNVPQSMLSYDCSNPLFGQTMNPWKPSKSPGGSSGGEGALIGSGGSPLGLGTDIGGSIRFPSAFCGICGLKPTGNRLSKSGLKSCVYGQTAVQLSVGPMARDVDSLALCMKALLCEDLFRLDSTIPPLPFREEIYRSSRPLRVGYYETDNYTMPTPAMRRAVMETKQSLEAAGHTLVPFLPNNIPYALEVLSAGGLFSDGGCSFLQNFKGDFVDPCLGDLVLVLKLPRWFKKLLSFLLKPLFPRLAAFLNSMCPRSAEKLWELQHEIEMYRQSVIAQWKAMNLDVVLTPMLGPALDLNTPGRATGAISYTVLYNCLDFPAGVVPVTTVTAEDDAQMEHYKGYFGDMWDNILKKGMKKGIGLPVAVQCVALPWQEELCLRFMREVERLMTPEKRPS

FAAH % Inh 5 mg/kg (mouse) (FAAH) | MAGL % Inh 5 mg/kg (mouse) (MAGL) | ABHD6 % Inh 5 mg/kg (mouse) (ABHD6) | SMILES
# (# is < 25%) | ### (### is ≥ 75%) |  | CCOc1cccc(CN2CCCC23CCN(C(=O)OC(C(F)(F)F)C(F)(F)F)CC3)c1 [Example 5, 1,1,1,3,3,3-Hexafluoropropan-2-yl 1-(3-ethoxybenzyl)-1,8-diazaspiro[4.5]decane-8-carboxylate]
 | ### (### is ≥ 75%) |  | COc1ccc(F)cc1CN1CCCC12CCN(C(=O)OC(C(F)(F)F)C(F)(F)F)CC2 [Example 8, 1,1,1,3,3,3-Hexafluoropropan-2-yl 1-(5-fluoro-2-methoxybenzyl)-1,8-diazaspiro[4.5]decane-8-carboxylate]
 | ### (### is ≥ 75%) | # (# is < 25%) | COc1c(Cl)cccc1CN1CCCC12CCN(C(=O)OC(C(F)(F)F)C(F)(F)F)CC2 [Example 10, 1,1,1,3,3,3-Hexafluoropropan-2-yl 1-(3-chloro-2-methoxybenzyl)-1,8-diazaspiro[4.5]decane-8-carboxylate]
# (# is < 25%) | ### (### is ≥ 75%) |  | O=C(OC(C(F)(F)F)C(F)(F)F)N1CCC2(CCN(Cc3ccc(Cl)cc3N3CCOCC3)C2)CC1 [Example 21, 1,1,1,3,3,3-Hexafluoropropan-2-yl 2-(4-chloro-2-morpholinobenzyl)-2,8-diazaspiro[4.5]decane-8-carboxylate]
 | ### (### is ≥ 75%) | ### (### is ≥ 75%) | O=C(OC(C(F)(F)F)C(F)(F)F)N1CCC2(CCCN2Cc2ccc(F)c(OCCF)c2)CC1 [Example 29, 1,1,1,3,3,3-Hexafluoropropan-2-yl 1-(4-fluoro-3-(2-fluoroethoxy)benzyl)-1,8-diazaspiro[4.5]decane-8-carboxylate]
# (# is < 25%) | ### (### is ≥ 75%) |  | O=C(OC(C(F)(F)F)C(F)(F)F)N1CCC2(CCCN2Cc2ccc(OCCF)cc2)CC1 [Example 31, 1,1,1,3,3,3-Hexafluoropropan-2-yl 1-(4-(2-fluoroethoxy)benzyl)-1,8-diazaspiro[4.5]decane-8-carboxylate]
# (# is < 25%) | ### (### is ≥ 75%) |  | CC1(C)CC2(CCN(C(=O)OC(C(F)(F)F)C(F)(F)F)CC2)CN1Cc1ccc(Cl)cc1 [Example 48, 1,1,1,3,3,3-Hexafluoropropan-2-yl 2-(4-chlorobenzyl)-3,3-dimethyl-2,8-diazaspiro[4.5]decane-8-carboxylate]
 | ### (### is ≥ 75%) |  | O=C(OC(C(F)(F)F)C(F)(F)F)N1CCC2(CCCN2Cc2ccc(Cl)cc2)CC1 [Example 62, 1,1,1,3,3,3-Hexafluoropropan-2-yl 1-(4-chlorobenzyl)-1,8-diazaspiro[4.5]decane-8-carboxylate]
# (# is < 25%) | ### (### is ≥ 75%) |  | CCN1CCCc2cccc(CN3CCC4(CCN(C(=O)OC(C(F)(F)F)C(F)(F)F)CC4)C3)c21 [Example 71, 1,1,1,3,3,3-Hexafluoropropan-2-yl 2-((1-ethyl-1,2,3,4-tetrahydroquinolin-8-yl)methyl)-2,8-diazaspiro[4.5]decane-8-carboxylate]
 | ### (### is ≥ 75%) |  | O=C(OC(C(F)(F)F)C(F)(F)F)N1CCC2(CCCN2Cc2cccc(N3CCCCC3)c2Cl)CC1 [Example 80, 1,1,1,3,3,3-Hexafluoropropan-2-yl 1-(2-chloro-3-(piperidin-1-yl)benzyl)-1,8-diazaspiro[4.5]decane-8-carboxylate]
 | ### (### is ≥ 75%) |  | O=C(O)C1CCN(c2cc(Cl)cc(CN3CCCC34CCN(C(=O)OC(C(F)(F)F)C(F)(F)F)CC4)c2)CC1 [Example 122, 1-(3-Chloro-5-((8-(((1,1,1,3,3,3-hexafluoropropan-2-yl)oxy)carbonyl)-1,8-diazaspiro[4.5]decan-1-yl)methyl)phenyl)piperidine-4-carboxylic acid]
# (# is < 25%) | ### (### is ≥ 75%) |  | O=C(O)C1CCN(c2cc(CN3CCCC34CCN(C(=O)OC(C(F)(F)F)C(F)(F)F)CC4)cc(C(F)(F)F)c2)CC1 [Example 123, 1-(3-((8-(((1,1,1,3,3,3-Hexafluoropropan-2-yl)oxy)carbonyl)-1,8-diazaspiro[4.5]decan-1-yl)methyl)-5-(trifluoromethyl)phenyl)piperidine-4-carboxylic acid]
# (# is < 25%) | ### (### is ≥ 75%) |  | CS(=O)(=O)N1CCc2cccc(CN3CCCC34CCN(C(=O)OC(C(F)(F)F)C(F)(F)F)CC4)c2C1 [Example 146, 1,1,1,3,3,3-Hexafluoropropan-2-yl 1-((2-methanesulfonyl-1,2,3,4-tetrahydroisoquinolin-8-yl)methyl)-1,8-diazaspiro[4.5]decane-8-carboxylate]
 | ### (### is ≥ 75%) |  | O=C(OC(C(F)(F)F)C(F)(F)F)N1CCC2(CCCN2Cc2ccc3c(c2)COC3)CC1 [Example 151, 1,1,1,3,3,3-Hexafluoropropan-2-yl 1-((1,3-dihydroisobenzofuran-5-yl)methyl)-1,8-diazaspiro[4.5]decane-8-carboxylate]
# (# is < 25%) | ### (### is ≥ 75%) |  | O=C(OC(C(F)(F)F)C(F)(F)F)N1CCC2(CCN(Cc3ccc(C(F)(F)F)c(N4CCCC4)c3)C2)CC1 [Example 157, 1,1,1,3,3,3-Hexafluoropropan-2-yl 2-(3-(pyrrolidin-1-yl)-4-(trifluoromethyl)benzyl)-2,8-diazaspiro[4.5]decane-8-carboxylate]
 | ### (### is ≥ 75%) |  | Cc1ccc(CN2CCCC23CCN(C(=O)OC(C(F)(F)F)C(F)(F)F)CC3)cc1C(F)(F)F [Example 180, 1,1,1,3,3,3-Hexafluoropropan-2-yl 1-(4-methyl-3-(trifluoromethyl)benzyl)-1,8-diazaspiro[4.5]decane-8-carboxylate]
# (# is < 25%) |  | # (# is < 25%) | CN1CCN(c2c(Cl)cccc2CN2CC3(CCN(C(=O)OC(C(F)(F)F)C(F)(F)F)CC3)CC2(C)C)CC1 [Example 189, 1,1,1,3,3,3-Hexafluoropropan-2-yl 2-(3-chloro-2-(4-methylpiperazin-1-yl)benzyl)-3,3-dimethyl-2,8-diazaspiro[4.5]decane-8-carboxylate]
# (# is < 25%) |  | # (# is < 25%) | CS(=O)(=O)C1CCN(c2cc(C(F)(F)F)ccc2CN2CCCC23CCN(C(=O)OC(C(F)(F)F)C(F)(F)F)CC3)C1 (stereo not drawn) [Example 193, 1,1,1,3,3,3-Hexafluoropropan-2-yl 1-(2-(3-(methylsulfonyl)pyrrolidin-1-yl)-4-(trifluoromethyl)benzyl)-1,8-diazaspiro[4.5]decane-8-carboxylate]
# (# is < 25%) |  | # (# is < 25%) | O=C(O)C1CCN(Cc2cc(Cl)cc(CN3CCCC34CCN(C(=O)OC(C(F)(F)F)C(F)(F)F)CC4)c2)CC1 [Example 194, 1-(3-Chloro-5-((8-(((1,1,1,3,3,3-hexafluoropropan-2-yl)oxy)carbonyl)-1,8-diazaspiro[4.5]decan-1-yl)methyl)benzyl)piperidine-4-carboxylic acid]
# (# is < 25%) |  | # (# is < 25%) | O=C(O)C1CCN(c2cc(C(F)(F)F)ccc2CN2CCCC23CCN(C(=O)OC(C(F)(F)F)C(F)(F)F)CC3)C1 (stereo not drawn) [Example 199]
# (# is < 25%) |  | # (# is < 25%) | O=C(O)C1COCCN1c1cc(CN2CCCC23CCN(C(=O)OC(C(F)(F)F)C(F)(F)F)CC3)cc(C(F)(F)F)c1 (stereo not drawn) [Example 200]
# (# is < 25%) | ### (### is ≥ 75%) |  | N#Cc1cc(CN2CCCC23CCN(C(=O)OC(C(F)(F)F)C(F)(F)F)CC3)cc(N2CCC(C(=O)O)CC2)c1 [Example 210]
# (# is < 25%) |  | # (# is < 25%) | O=C(O)[C@@H]1CCCN(c2cc(C(F)(F)F)ccc2CN2CCC3(CCN(C(=O)OC(C(F)(F)F)C(F)(F)F)CC3)C2)C1 [Example 211]
# (# is < 25%) |  | # (# is < 25%) | CC1(C(=O)O)CCCN(c2cc(C(F)(F)F)ccc2CN2CCC3(CCN(C(=O)OC(C(F)(F)F)C(F)(F)F)CC3)C2)C1 (stereo not drawn) [Example 216]
# (# is < 25%) |  | # (# is < 25%) | CC1(C(=O)O)CCN(c2cc(C(F)(F)F)ccc2CN2CCCC23CCN(C(=O)OC(C(F)(F)F)C(F)(F)F)CC3)C1 (stereo not drawn) [Example 230]
# (# is < 25%) |  | # (# is < 25%) | N#Cc1ccc(CN2CCCC23CCN(C(=O)OC(C(F)(F)F)C(F)(F)F)CC3)c(N2CCC(C(=O)O)CC2)c1 [Example 249]
# (# is < 25%) |  | # (# is < 25%) | O=C(O)C1CCN(Cc2cc(CN3CCCC34CCN(C(=O)OC(C(F)(F)F)C(F)(F)F)CC4)cc(C(F)(F)F)c2)C1 (stereo not drawn) [Example 253]
# (# is < 25%) |  | # (# is < 25%) | O=C(O)C1CCN(Cc2cc(C(F)(F)F)ccc2CN2CCCC23CCN(C(=O)OC(C(F)(F)F)C(F)(F)F)CC3)C1 (stereo not drawn) [Example 262]
# (# is < 25%) |  | # (# is < 25%) | O=C(O)C1CCN(Cc2cc(CN3CCCC34CCN(C(=O)OC(C(F)(F)F)C(F)(F)F)CC4)cc(OC(F)(F)F)c2)CC1 [Example 269]
# (# is < 25%) |  | # (# is < 25%) | O=C(O)C1CCN(Cc2cc(CN3CCCC34CCN(C(=O)OC(C(F)(F)F)C(F)(F)F)CC4)cc(OC(F)(F)F)c2)C1 (stereo not drawn) [Example 270]
